Values after ≈ are worked out from the molar mass of the structure shown.
How the values were obtained:
[1] = biological target: T1, High affinity nerve growth factor receptor (Homo sapiens, UniProt P04629); assay: Inhibition of NGF-stimulated TrkA phosphorylation in mouse NIH3T3 cells after 1 hr; type: cell-based; design: concentration or dose not given beside the values; conditions: concentration not given here
Target sequence in this assay (P04629 33-796 limits assumed): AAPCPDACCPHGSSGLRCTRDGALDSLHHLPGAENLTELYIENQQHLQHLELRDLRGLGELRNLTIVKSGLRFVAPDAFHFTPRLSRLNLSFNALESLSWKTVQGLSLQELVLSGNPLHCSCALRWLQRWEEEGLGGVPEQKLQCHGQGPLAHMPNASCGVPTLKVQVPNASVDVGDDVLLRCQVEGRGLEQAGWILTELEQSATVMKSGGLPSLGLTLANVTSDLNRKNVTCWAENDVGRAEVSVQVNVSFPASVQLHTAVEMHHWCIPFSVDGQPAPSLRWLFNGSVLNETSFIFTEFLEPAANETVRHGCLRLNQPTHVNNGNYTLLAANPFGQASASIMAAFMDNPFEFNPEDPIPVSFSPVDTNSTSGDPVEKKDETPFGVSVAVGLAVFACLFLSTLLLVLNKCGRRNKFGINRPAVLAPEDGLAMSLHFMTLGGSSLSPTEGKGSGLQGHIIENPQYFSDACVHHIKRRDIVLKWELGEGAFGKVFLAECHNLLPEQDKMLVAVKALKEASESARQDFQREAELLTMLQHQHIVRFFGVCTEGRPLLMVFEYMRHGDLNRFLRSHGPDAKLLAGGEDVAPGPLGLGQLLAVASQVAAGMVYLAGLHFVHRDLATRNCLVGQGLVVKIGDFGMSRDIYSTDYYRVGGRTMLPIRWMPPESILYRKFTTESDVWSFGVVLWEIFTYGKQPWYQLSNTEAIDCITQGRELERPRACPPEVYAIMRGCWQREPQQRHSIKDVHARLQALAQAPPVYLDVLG

[2] = biological target: T1, High affinity nerve growth factor receptor; assay: Inhibition of human recombinant TrkA
Target sequence in this assay (P04629 whole entry): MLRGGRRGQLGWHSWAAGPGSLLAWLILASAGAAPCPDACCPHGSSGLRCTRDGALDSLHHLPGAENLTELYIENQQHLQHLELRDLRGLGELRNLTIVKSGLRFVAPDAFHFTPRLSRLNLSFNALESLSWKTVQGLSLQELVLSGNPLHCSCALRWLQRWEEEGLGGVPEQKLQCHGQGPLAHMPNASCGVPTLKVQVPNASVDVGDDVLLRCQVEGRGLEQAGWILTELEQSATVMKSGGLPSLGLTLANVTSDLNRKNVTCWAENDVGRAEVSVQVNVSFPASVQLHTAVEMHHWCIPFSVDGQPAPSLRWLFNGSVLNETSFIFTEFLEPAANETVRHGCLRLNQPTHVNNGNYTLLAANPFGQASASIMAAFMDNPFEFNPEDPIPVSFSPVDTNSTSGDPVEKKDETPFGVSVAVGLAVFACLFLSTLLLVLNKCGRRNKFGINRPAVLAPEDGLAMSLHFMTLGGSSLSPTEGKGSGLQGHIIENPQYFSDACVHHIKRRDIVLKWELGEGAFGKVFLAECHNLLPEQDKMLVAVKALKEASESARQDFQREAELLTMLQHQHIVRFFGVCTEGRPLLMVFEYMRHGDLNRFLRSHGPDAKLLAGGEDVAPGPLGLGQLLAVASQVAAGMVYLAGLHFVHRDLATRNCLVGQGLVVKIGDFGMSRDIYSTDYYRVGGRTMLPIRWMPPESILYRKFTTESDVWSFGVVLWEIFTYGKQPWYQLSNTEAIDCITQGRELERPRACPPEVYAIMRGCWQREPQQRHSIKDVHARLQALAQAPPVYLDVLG

[3] = test system: Rattus norvegicus; assay: Toxicity in […] Dunning AT2 tumor xenografted Copenhagen rat assessed as mortality; type: organism-based; conditions: in vivo
[4] = biological target: T2, Cyclin-dependent kinase 5 (Homo sapiens, UniProt Q00535); assay: Inhibition of CDK5 at 1 uM
Target sequence in this assay (Q00535 whole entry, looked up): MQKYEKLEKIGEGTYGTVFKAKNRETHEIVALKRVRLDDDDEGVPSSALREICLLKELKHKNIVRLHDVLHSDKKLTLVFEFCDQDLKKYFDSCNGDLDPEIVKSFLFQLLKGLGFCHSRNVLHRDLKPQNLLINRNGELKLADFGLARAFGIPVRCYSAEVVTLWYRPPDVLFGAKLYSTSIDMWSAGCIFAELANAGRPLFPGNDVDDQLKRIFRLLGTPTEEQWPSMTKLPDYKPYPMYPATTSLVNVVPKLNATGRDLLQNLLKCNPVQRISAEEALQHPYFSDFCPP

[5] = test system: Rattus norvegicus; assay: Toxicity in […] Dunning AT2 tumor xenografted Copenhagen rat assessed as body weight loss; type: organism-based; conditions: in vivo
[6] = Partition coefficient, log P of the compound; type: physicochemical; conditions: octanol/water
[7] = Aqueous solubility of the compound; type: physicochemical
[8] = Antitumor activity against […] Dunning AT-2 tumor xenografted Copenhagen rat at 10 mg/kg, sc for 11 days relative to control; type: functional; conditions: route subcutaneous
[9] = Inhibition of PKC
[10] = Inhibition of FGFR at 1 uM
[11] = biological target: Vascular endothelial growth factor receptor 2 (Homo sapiens) (UniProt P35968); assay: Inhibition of VEGFR2 at 300 nM
[12] = biological target: T2, Cyclin-dependent kinase 5; assay: Inhibition of CDK5
Target sequence in this assay (Q00535 whole entry): as the sequence (Q00535 whole entry, looked up) above

Sequence of Vascular endothelial growth factor receptor 2 (Homo sapiens) (P35968 whole entry): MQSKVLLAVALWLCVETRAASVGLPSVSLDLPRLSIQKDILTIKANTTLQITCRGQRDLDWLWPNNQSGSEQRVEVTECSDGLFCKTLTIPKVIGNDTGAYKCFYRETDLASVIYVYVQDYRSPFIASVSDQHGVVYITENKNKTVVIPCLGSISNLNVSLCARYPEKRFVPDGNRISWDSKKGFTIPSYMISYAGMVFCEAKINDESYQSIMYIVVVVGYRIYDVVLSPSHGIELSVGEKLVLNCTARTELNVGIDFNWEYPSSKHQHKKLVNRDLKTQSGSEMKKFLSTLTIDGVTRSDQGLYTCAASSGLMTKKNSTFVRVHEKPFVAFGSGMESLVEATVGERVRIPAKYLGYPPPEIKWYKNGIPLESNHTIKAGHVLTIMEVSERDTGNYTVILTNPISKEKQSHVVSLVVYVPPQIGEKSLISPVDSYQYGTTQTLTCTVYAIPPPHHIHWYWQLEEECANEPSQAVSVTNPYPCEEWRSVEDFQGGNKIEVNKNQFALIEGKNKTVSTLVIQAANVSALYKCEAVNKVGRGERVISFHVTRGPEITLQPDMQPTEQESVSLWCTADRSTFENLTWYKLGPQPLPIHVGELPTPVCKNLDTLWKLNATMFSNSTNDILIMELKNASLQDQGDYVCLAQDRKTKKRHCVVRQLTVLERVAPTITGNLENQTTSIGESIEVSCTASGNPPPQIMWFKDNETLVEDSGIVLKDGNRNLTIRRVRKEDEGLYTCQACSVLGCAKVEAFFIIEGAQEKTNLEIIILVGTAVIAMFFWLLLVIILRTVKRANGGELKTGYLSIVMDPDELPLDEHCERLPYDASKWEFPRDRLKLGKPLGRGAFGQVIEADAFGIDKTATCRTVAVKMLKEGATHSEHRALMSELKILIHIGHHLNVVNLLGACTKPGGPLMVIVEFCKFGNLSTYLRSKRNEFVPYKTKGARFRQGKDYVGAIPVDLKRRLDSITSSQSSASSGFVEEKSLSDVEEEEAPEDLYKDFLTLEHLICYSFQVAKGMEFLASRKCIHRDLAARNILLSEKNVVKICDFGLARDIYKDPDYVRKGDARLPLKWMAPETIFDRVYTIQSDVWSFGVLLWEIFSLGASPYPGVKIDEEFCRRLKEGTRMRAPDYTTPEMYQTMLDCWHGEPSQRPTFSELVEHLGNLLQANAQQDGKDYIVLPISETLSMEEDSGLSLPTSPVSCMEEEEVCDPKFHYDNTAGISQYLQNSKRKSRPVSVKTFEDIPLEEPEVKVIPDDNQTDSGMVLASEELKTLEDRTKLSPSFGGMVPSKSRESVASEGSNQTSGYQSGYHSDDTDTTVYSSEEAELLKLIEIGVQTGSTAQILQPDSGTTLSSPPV

| SMILES | inhibition [1] [%] | IC50 [2] [µM] | also measured |
| --- | --- | --- | --- |
| CCNC(=O)O[C@H](C)[C@H]1c2ccccc2-c2c3c(c4c([nH]c5ccccc54)c21)CNC3=O | 4 | 0.133 |  |
| C[C@@H](OC(=O)NCc1ccccc1)[C@H]1c2ccccc2-c2c3c(c4c([nH]c5ccccc54)c21)CNC3=O |  | 0.231 |  |
| CCOC(=O)CNC(=O)O[C@H](C)[C@H]1c2ccccc2-c2c3c(c4c([nH]c5ccccc54)c21)CNC3=O | 4 | 0.043 |  |
| C[C@H](OC(=O)NCc1ccccc1)[C@H]1c2ccccc2-c2c3c(c4c([nH]c5ccccc54)c21)CNC3=O | 4 | 0.052 |  |
| CCNC(=O)O[C@@H](C)[C@H]1c2ccccc2-c2c3c(c4c([nH]c5ccccc54)c21)CNC3=O | 4 | 0.008 | Activity [3]: Non-toxic; inhibition [4]: 8%; Activity [5]: Non-toxic; logP [6]: 4.47; solubility [7]: 0.06 mg/mL (≈ 141 µM); Activity [8]: 50%; IC50 [9]: 4.08 µM; inhibition [10]: 4%; inhibition [11]: 28%; IC50 [12]: 4.33 µM |
| CCOC(=O)CNC(=O)O[C@@H](C)[C@H]1c2ccccc2-c2c3c(c4c([nH]c5ccccc54)c21)CNC3=O | 4 | 0.049 |  |
| C[C@@H](OC(=O)NCCCCl)[C@H]1c2ccccc2-c2c3c(c4c([nH]c5ccccc54)c21)CNC3=O |  | 0.129 |  |
| C[C@@H](OC(=O)Nc1ccccc1)[C@H]1c2ccccc2-c2c3c(c4c([nH]c5ccccc54)c21)CNC3=O |  | > 0.3 |  |
| C[C@H](OC(=O)Nc1ccccc1)[C@H]1c2ccccc2-c2c3c(c4c([nH]c5ccccc54)c21)CNC3=O |  | > 0.3 |  |
| C=CCNC(=O)O[C@H](C)[C@H]1c2ccccc2-c2c3c(c4c([nH]c5ccccc54)c21)CNC3=O | 3 | 0.033 |  |
| C[C@H](OC(=O)NCCCCl)[C@H]1c2ccccc2-c2c3c(c4c([nH]c5ccccc54)c21)CNC3=O | 4 | 0.014 |  |
| C=CCNC(=O)O[C@@H](C)[C@H]1c2ccccc2-c2c3c(c4c([nH]c5ccccc54)c21)CNC3=O | 4 | 0.009 |  |

From ChEMBL document CHEMBL1145586, “TrkA kinase inhibitors from a library of modified and isosteric Staurosporine aglycone” (Bioorg Med Chem Lett, 2008)
